In patent EP0200211A1, “Diagnostic radiopharmaceutical compounds” (THE RESEARCH FOUNDATION OF STATE UNIVERSITY OF NEW YORK, priority 1985, dated 1986):

Test: Autoradiogram comparison of rat brain distribution of radioactivity after intravenous injection
Format: in vivo, Sprague-Dawley male rat
Conditions: autoradiograms at 2 and 15 minutes after injection, statement concerns the second (15 minute) autoradiogram
Source text: • Figure 1 is an autoradiogram of rat brain distribution of radioactivity two (2) minutes after intravenous injection with a radioactive compound of the prior art. • Figure 2 is an autoradiogram of rat brain distribution of radioactivity fifteen (15) minutes after intravenous injection with a radioactive compound of the prior art. • Figure 3 is an autoradiogram of rat brain distribution of radioactivity two (2) minutes after intravenous injection with a radioactive compound of the invention. • Figure 4 is an autoradiogram of rat brain distribution of radioactivity fifteen (15) minutes after intravenous injection with a radioactive compound of the invention.
Autoradiograms were made of Sprague-Dawley male rat brains of animals that were intravenously injected with 6-[N,N-diethylamino]methyl-3,3,10,10-tetramethyl-1,2-dithia-5,8-diazacylcodecane technetium-99m complex of the invention and 10,10,13,13-tetramethyl-11,12-dithia-8,15-diazaspiro-[5.9)pentadecane-technetium-99m complex of the prior art. The autoradiograms were taken at 2 and 15 minute intervals after injection.

Row | Structure (SMILES) | definition of the autoradiogram of rat brain
1 | CC1(C)CNCC2(CCCCC2)NCC(C)(C)SS1.[99Tc] [10,10,13,13-tetramethyl-11,12-dithia-8,15-diaza spiro [5.9] pentadecane-technetium-99m complex] | lack of clear definition
2 | CCN(CC)CC1CNCC(C)(C)SSC(C)(C)CN1.[99Tc] (centres unmarked) [6-[N,N-diethylamino]methyl-3,3,10,10-tetramethyl-1,2-dithia-5,8-diazacylcodecane technetium-99m complex] | sharp definition obtained and retained
